Tests used:
lipoamide = compound: NC(=O)CCCCC1CCSS1 [lipoamide]; experiment: thermal stability z-score vs DMSO; higher = more thermally stabilized by treatment; settings: HeLa, lipoamide concentration 100 µM
Description: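 Cellular thermal proteome profiling in HeLa cells. Cells were treated with 100 µM lipoamide for 1 h, with or without 1 mM arsenate for a further 1 h, then heated to ten temperatures (37-66.3 °C), and soluble protein was quantified by TMT mass spectrometry relative to 0.1% DMSO controls. The thermal stability score (sum of log2 fold changes minus the abundance score) was transformed to a z-score; mean of n = 3 experiments.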

potassium arsenate = compound: O=[As]([O-])(O)O.[K+] [potassium arsenate]; experiment: as above; settings: HeLa; arsenate concentration 1 mM
Description: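 Cellular thermal proteome profiling in HeLa cells treated with 1 mM arsenate for 1 h (DMSO pretreatment), heated to ten temperatures (37-66.3 °C). Soluble protein was quantified by TMT mass spectrometry relative to DMSO controls; the thermal stability score was transformed to a z-score; mean of n = 3 experiments.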

[1] = arsenate co-treatment: 1 mM arsenate 1 h
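Also: each temperature applied for 3 min, abundance score taken as mean log2 fold change at the two lowest temperatures, z-score obtained by mean subtraction and division by SD.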

Sequence of UniProt Q5JSL3 (Q5JSL3 whole entry): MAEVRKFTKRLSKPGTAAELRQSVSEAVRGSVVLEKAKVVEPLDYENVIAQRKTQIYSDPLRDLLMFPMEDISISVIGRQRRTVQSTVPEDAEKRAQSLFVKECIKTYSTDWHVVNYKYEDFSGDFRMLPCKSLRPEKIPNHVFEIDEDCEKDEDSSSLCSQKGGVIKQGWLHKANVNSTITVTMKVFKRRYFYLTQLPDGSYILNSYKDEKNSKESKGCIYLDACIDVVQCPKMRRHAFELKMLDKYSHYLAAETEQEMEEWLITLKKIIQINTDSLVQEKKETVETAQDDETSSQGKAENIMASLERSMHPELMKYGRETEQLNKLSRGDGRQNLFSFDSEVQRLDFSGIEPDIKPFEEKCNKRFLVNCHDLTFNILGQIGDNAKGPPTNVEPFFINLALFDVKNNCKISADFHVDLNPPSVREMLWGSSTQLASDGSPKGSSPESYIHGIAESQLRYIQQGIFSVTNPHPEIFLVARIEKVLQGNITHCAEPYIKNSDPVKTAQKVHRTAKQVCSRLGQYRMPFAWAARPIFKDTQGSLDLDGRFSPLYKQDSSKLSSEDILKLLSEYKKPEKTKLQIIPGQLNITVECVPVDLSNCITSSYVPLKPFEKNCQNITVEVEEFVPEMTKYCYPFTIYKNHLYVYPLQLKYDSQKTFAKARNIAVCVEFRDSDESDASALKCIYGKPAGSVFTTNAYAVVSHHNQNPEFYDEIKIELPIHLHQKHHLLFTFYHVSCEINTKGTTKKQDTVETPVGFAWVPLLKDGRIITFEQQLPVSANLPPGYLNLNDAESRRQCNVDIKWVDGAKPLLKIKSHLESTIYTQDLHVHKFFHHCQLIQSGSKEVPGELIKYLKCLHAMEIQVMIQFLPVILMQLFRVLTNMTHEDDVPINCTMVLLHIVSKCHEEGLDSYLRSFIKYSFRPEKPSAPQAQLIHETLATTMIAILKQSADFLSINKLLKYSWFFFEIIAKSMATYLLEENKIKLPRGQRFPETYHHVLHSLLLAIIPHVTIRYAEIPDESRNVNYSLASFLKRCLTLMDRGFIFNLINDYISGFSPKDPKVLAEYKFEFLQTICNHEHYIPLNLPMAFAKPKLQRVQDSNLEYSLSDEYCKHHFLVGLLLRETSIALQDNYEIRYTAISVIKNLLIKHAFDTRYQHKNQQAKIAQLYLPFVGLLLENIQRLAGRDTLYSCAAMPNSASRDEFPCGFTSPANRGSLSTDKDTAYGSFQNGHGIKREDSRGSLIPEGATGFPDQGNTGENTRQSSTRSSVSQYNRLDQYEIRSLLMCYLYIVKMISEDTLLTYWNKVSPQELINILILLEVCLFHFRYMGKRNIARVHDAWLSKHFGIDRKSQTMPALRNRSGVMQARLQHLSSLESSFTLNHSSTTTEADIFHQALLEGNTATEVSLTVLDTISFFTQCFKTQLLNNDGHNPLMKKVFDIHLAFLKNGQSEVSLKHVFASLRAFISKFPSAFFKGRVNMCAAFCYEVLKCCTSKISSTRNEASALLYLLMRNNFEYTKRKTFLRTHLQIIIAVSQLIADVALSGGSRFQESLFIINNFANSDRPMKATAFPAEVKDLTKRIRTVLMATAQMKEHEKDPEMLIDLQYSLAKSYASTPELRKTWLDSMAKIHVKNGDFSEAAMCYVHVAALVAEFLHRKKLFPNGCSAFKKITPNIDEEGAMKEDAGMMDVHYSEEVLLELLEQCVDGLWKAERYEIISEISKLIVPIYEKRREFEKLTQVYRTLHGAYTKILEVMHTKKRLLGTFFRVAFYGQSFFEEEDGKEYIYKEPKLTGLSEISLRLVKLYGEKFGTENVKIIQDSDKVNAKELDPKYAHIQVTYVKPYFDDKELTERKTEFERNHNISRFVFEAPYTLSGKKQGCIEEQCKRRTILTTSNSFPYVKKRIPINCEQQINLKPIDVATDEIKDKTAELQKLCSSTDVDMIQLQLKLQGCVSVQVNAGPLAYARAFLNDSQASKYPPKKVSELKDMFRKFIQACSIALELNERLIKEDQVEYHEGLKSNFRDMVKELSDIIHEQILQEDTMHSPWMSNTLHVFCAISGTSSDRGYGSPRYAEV
Sequence of UniProt Q92597 (Q92597 whole entry): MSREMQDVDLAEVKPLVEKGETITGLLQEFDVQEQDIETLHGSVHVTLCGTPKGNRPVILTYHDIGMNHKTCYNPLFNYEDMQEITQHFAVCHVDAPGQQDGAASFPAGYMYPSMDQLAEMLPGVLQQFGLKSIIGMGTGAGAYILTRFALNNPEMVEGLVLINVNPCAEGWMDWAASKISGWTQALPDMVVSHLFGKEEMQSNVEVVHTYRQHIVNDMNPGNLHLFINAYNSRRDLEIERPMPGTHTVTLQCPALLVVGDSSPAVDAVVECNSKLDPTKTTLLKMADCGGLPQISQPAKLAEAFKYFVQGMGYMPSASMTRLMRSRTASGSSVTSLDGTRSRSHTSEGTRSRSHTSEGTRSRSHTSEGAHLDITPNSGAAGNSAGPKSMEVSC
Sequence of UniProt Q9NQ55 (Q9NQ55 whole entry): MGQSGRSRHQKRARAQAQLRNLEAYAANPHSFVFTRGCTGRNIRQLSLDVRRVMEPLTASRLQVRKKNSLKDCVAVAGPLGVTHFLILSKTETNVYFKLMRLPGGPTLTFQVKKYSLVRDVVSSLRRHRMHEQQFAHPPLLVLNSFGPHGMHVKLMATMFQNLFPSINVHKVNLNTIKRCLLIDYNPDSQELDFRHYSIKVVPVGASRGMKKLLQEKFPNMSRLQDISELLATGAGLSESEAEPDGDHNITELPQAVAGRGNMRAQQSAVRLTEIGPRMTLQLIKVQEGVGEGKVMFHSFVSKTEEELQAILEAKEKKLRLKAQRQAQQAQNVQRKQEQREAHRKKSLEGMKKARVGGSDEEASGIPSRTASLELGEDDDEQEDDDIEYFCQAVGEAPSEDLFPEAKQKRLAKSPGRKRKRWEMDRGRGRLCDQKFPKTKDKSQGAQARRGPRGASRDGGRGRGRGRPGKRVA
Sequence of UniProt P00387 (P00387 whole entry): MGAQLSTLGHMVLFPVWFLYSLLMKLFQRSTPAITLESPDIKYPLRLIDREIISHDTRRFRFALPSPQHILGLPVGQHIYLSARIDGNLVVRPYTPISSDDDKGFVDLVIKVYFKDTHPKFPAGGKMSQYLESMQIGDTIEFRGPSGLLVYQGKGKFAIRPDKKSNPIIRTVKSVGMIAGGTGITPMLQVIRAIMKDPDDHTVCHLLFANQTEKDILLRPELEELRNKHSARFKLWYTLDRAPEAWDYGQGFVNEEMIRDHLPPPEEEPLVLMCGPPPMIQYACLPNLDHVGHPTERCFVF
Sequence of UniProt O75884 (O75884 whole entry, looked up): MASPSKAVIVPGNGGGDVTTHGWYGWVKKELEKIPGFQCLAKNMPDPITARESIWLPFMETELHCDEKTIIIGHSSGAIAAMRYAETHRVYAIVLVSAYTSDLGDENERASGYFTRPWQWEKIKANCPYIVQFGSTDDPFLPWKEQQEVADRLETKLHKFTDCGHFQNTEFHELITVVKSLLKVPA
Sequence of UniProt Q9BVC6 (Q9BVC6 whole entry): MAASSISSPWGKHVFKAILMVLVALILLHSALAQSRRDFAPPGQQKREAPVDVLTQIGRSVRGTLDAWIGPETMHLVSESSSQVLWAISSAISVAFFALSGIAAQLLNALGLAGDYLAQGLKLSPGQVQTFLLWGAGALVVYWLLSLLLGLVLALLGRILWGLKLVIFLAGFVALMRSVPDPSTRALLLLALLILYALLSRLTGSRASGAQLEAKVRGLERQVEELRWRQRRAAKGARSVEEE
Sequence of UniProt Q96AT1 (Q96AT1 whole entry): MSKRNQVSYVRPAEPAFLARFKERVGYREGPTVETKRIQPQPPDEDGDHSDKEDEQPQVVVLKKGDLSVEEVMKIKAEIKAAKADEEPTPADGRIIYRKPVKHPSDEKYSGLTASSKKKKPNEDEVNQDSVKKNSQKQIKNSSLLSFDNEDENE
Sequence of UniProt Q13492 (Q13492 whole entry): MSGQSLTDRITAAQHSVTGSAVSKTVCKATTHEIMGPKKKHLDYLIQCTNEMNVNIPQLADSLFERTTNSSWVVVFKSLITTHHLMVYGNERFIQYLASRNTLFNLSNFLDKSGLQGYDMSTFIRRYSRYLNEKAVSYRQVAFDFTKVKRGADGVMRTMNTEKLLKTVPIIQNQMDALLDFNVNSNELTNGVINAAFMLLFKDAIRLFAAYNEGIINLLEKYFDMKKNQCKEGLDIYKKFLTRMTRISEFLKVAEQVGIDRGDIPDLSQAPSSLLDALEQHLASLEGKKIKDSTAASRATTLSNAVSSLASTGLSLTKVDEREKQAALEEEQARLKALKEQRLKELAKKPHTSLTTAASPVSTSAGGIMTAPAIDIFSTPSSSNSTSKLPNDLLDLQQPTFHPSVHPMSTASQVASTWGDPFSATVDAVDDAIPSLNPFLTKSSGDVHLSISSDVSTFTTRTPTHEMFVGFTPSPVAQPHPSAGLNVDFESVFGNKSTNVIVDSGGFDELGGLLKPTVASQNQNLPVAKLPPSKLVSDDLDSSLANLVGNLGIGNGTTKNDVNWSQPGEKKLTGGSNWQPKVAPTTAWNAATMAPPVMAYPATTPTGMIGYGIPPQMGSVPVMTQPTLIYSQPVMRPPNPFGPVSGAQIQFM
Sequence of UniProt Q9NUJ3 (Q9NUJ3 whole entry): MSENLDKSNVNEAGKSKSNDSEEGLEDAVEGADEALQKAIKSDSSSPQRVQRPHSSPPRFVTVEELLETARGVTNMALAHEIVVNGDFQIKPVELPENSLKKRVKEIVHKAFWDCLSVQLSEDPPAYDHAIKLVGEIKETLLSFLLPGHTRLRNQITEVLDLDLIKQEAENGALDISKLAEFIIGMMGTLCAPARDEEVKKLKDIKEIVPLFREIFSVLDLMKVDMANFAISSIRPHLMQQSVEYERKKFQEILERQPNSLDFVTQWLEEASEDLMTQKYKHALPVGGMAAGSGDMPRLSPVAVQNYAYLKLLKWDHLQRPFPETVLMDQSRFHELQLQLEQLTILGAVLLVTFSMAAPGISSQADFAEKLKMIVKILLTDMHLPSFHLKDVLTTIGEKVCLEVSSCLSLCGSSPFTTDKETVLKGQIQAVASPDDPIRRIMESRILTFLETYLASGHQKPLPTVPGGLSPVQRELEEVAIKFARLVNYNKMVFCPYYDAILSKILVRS

Work on ALDOA (UniProt P04075) yielded a thermal stability z-score (lipoamide; [1]) of 0.281, a thermal stability z-score (lipoamide; arsenate co-treatment: none) of 0.0525 and a thermal stability z-score (potassium arsenate) of -0.488.

In the case of SRA1 (UniProt Q9HD15), the thermal stability z-score (lipoamide; [1]) is reported as 0.911, the thermal stability z-score (lipoamide; arsenate co-treatment: none) is reported as 0.998 and the thermal stability z-score (potassium arsenate) is reported as 0.51.

CDIPT (UniProt O14735) showed a thermal stability z-score (lipoamide; [1]) of 1.05, a thermal stability z-score (lipoamide; arsenate co-treatment: none) of 0.638 and a thermal stability z-score (potassium arsenate) of -0.187.

RNF25 (UniProt Q96BH1) gave a thermal stability z-score (lipoamide; [1]) of -0.412, a thermal stability z-score (lipoamide; arsenate co-treatment: none) of -0.217 and a thermal stability z-score (potassium arsenate) of -1.12.

In the case of TRIP4 (UniProt Q15650), the thermal stability z-score (lipoamide; [1]) is reported as 0.243, the thermal stability z-score (lipoamide; arsenate co-treatment: none) is reported as 0.422 and the thermal stability z-score (potassium arsenate) is reported as -0.932.

With DNAJC2 (UniProt Q99543) the thermal stability z-score (lipoamide; [1]) was -0.0501, the thermal stability z-score (lipoamide; arsenate co-treatment: none) was 0.0208 and the thermal stability z-score (potassium arsenate) was 1.09.

For ATP1A1 (UniProt P05023), the thermal stability z-score (lipoamide; [1]) was 0.0243, the thermal stability z-score (lipoamide; arsenate co-treatment: none) was 0.186 and the thermal stability z-score (potassium arsenate) was -0.742.

For RAP2B (UniProt P61225), the thermal stability z-score (lipoamide; [1]) was 0.92, the thermal stability z-score (lipoamide; arsenate co-treatment: none) was 0.134 and the thermal stability z-score (potassium arsenate) was -0.0313.

In the case of NAXD (UniProt Q8IW45), the thermal stability z-score (lipoamide; [1]) is reported as -0.31, the thermal stability z-score (lipoamide; arsenate co-treatment: none) is reported as 0.472 and the thermal stability z-score (potassium arsenate) is reported as 0.0249.

In the case of MLKL (UniProt Q8NB16), the thermal stability z-score (lipoamide; [1]) is reported as 0.561, the thermal stability z-score (lipoamide; arsenate co-treatment: none) is reported as 0.379 and the thermal stability z-score (potassium arsenate) is reported as -1.45.

For TXNDC9 (UniProt O14530), the thermal stability z-score (lipoamide; [1]) was -0.0714, the thermal stability z-score (lipoamide; arsenate co-treatment: none) was -0.127 and the thermal stability z-score (potassium arsenate) was 0.0909.

NOL11 (UniProt Q9H8H0) showed a thermal stability z-score (lipoamide; [1]) of 0.118, a thermal stability z-score (lipoamide; arsenate co-treatment: none) of 0.00868 and a thermal stability z-score (potassium arsenate) of -0.0716.

In the case of PPAN (UniProt Q9NQ55), the thermal stability z-score (lipoamide; [1]) is reported as 0.703, the thermal stability z-score (lipoamide; arsenate co-treatment: none) is reported as -0.582 and the thermal stability z-score (potassium arsenate) is reported as -0.33.

CYB5B (UniProt O43169) showed a thermal stability z-score (lipoamide; [1]) of 1.05, a thermal stability z-score (lipoamide; arsenate co-treatment: none) of 0.411 and a thermal stability z-score (potassium arsenate) of 0.322.

DOCK11 (UniProt Q5JSL3) was tested, and the thermal stability z-score (lipoamide; [1]) was -0.016, the thermal stability z-score (lipoamide; arsenate co-treatment: none) was 0.0791 and the thermal stability z-score (potassium arsenate) was -0.755.

IVNS1ABP (UniProt Q9Y6Y0) was tested, and the thermal stability z-score (lipoamide; [1]) was 0.601, the thermal stability z-score (lipoamide; arsenate co-treatment: none) was 0.743 and the thermal stability z-score (potassium arsenate) was -0.145.

For LYPD3 (UniProt O95274), the thermal stability z-score (lipoamide; [1]) was -0.113, the thermal stability z-score (lipoamide; arsenate co-treatment: none) was 0.0676 and the thermal stability z-score (potassium arsenate) was -0.484.

EXOC6 (UniProt Q8TAG9) showed a thermal stability z-score (lipoamide; [1]) of -0.242, a thermal stability z-score (lipoamide; arsenate co-treatment: none) of -0.374 and a thermal stability z-score (potassium arsenate) of -0.201.

TCP11L1 (UniProt Q9NUJ3) showed a thermal stability z-score (lipoamide; [1]) of -0.328, a thermal stability z-score (lipoamide; arsenate co-treatment: none) of 0.00441 and a thermal stability z-score (potassium arsenate) of 0.586.

In the case of SH3BP4 (UniProt Q9P0V3), the thermal stability z-score (lipoamide; [1]) is reported as 0.0947, the thermal stability z-score (lipoamide; arsenate co-treatment: none) is reported as 0.0993 and the thermal stability z-score (potassium arsenate) is reported as -0.0405.

RPL21 (UniProt P46778) was tested, and the thermal stability z-score (lipoamide; [1]) was 0.61, the thermal stability z-score (lipoamide; arsenate co-treatment: none) was 0.308 and the thermal stability z-score (potassium arsenate) was -1.03.

CHMP4B (UniProt Q9H444) was tested, and the thermal stability z-score (lipoamide; [1]) was 0.0919, the thermal stability z-score (lipoamide; arsenate co-treatment: none) was 0.359 and the thermal stability z-score (potassium arsenate) was -0.176.

For GCC2 (UniProt Q8IWJ2), the thermal stability z-score (lipoamide; [1]) was -0.88, the thermal stability z-score (lipoamide; arsenate co-treatment: none) was -0.098 and the thermal stability z-score (potassium arsenate) was 0.827.

In the case of RAP2C (UniProt Q9Y3L5), the thermal stability z-score (lipoamide; [1]) is reported as 1.35, the thermal stability z-score (lipoamide; arsenate co-treatment: none) is reported as 0.676 and the thermal stability z-score (potassium arsenate) is reported as 0.21.

Work on TBCK (UniProt Q8TEA7) yielded a thermal stability z-score (lipoamide; [1]) of 0.135, a thermal stability z-score (lipoamide; arsenate co-treatment: none) of 0.0192 and a thermal stability z-score (potassium arsenate) of -0.192.

Work on SLC17A5 (UniProt Q9NRA2) yielded a thermal stability z-score (lipoamide; [1]) of 0.265, a thermal stability z-score (lipoamide; arsenate co-treatment: none) of 0.076 and a thermal stability z-score (potassium arsenate) of -0.982.

Work on KIAA1143 (UniProt Q96AT1) yielded a thermal stability z-score (lipoamide; [1]) of -0.286, a thermal stability z-score (lipoamide; arsenate co-treatment: none) of 0.26 and a thermal stability z-score (potassium arsenate) of -0.385.

HDHD2 (UniProt Q9H0R4) gave a thermal stability z-score (lipoamide; [1]) of 0.338, a thermal stability z-score (lipoamide; arsenate co-treatment: none) of 0.00313 and a thermal stability z-score (potassium arsenate) of -0.185.

With AHCY (UniProt P23526) the thermal stability z-score (lipoamide; [1]) was 0.488, the thermal stability z-score (lipoamide; arsenate co-treatment: none) was 0.146 and the thermal stability z-score (potassium arsenate) was -1.82.

For KIAA0101 (UniProt Q15004), the thermal stability z-score (lipoamide; [1]) was 0.253, the thermal stability z-score (lipoamide; arsenate co-treatment: none) was 0.245 and the thermal stability z-score (potassium arsenate) was 0.49.

With TMEM109 (UniProt Q9BVC6) the thermal stability z-score (lipoamide; [1]) was 0.0915, the thermal stability z-score (lipoamide; arsenate co-treatment: none) was 0.27 and the thermal stability z-score (potassium arsenate) was 0.115.

Work on NDRG1 (UniProt Q92597) yielded a thermal stability z-score (lipoamide; [1]) of -0.311, a thermal stability z-score (lipoamide; arsenate co-treatment: none) of -0.62 and a thermal stability z-score (potassium arsenate) of -1.31.

EMC8 (UniProt O43402) was tested, and the thermal stability z-score (lipoamide; [1]) was 0.0729, the thermal stability z-score (lipoamide; arsenate co-treatment: none) was 0.209 and the thermal stability z-score (potassium arsenate) was 0.348.

COASY (UniProt Q13057) showed a thermal stability z-score (lipoamide; [1]) of -0.525, a thermal stability z-score (lipoamide; arsenate co-treatment: none) of -0.09 and a thermal stability z-score (potassium arsenate) of 0.944.

CYB5R3 (UniProt P00387) gave a thermal stability z-score (lipoamide; [1]) of 1.07, a thermal stability z-score (lipoamide; arsenate co-treatment: none) of -0.079 and a thermal stability z-score (potassium arsenate) of -0.832.

Work on EPM2AIP1 (UniProt Q7L775) yielded a thermal stability z-score (lipoamide; [1]) of -0.0474, a thermal stability z-score (lipoamide; arsenate co-treatment: none) of 0.0432 and a thermal stability z-score (potassium arsenate) of -0.0491.

In the case of LAMTOR3 (UniProt Q9UHA4), the thermal stability z-score (lipoamide; [1]) is reported as 1.21, the thermal stability z-score (lipoamide; arsenate co-treatment: none) is reported as 0.41 and the thermal stability z-score (potassium arsenate) is reported as -0.713.

RAD51B (UniProt O15315) showed a thermal stability z-score (lipoamide; [1]) of 0.231, a thermal stability z-score (lipoamide; arsenate co-treatment: none) of 0.428 and a thermal stability z-score (potassium arsenate) of 0.578.

Target PCYT2 (UniProt Q99447) has a thermal stability z-score (lipoamide; [1]) of 0.0344, a thermal stability z-score (lipoamide; arsenate co-treatment: none) of -0.0669 and a thermal stability z-score (potassium arsenate) of -0.938.

ATP6AP1 (UniProt Q15904) gave a thermal stability z-score (lipoamide; [1]) of -0.952, a thermal stability z-score (lipoamide; arsenate co-treatment: none) of -0.601 and a thermal stability z-score (potassium arsenate) of 0.569.

UXS1 (UniProt Q8NBZ7) gave a thermal stability z-score (lipoamide; [1]) of 0.238, a thermal stability z-score (lipoamide; arsenate co-treatment: none) of 0.551 and a thermal stability z-score (potassium arsenate) of 0.198.

ZDHHC17 (UniProt Q8IUH5) showed a thermal stability z-score (lipoamide; [1]) of 0.571, a thermal stability z-score (lipoamide; arsenate co-treatment: none) of 1.07 and a thermal stability z-score (potassium arsenate) of 0.191.

Target DDX18 (UniProt Q9NVP1) has a thermal stability z-score (lipoamide; [1]) of 0.301, a thermal stability z-score (lipoamide; arsenate co-treatment: none) of 0.0191 and a thermal stability z-score (potassium arsenate) of -1.26.

Work on PICALM (UniProt Q13492) yielded a thermal stability z-score (lipoamide; [1]) of 0.107, a thermal stability z-score (lipoamide; arsenate co-treatment: none) of -0.16 and a thermal stability z-score (potassium arsenate) of -0.0231.

CWF19L1 (UniProt Q69YN2) gave a thermal stability z-score (lipoamide; [1]) of -0.381, a thermal stability z-score (lipoamide; arsenate co-treatment: none) of -0.106 and a thermal stability z-score (potassium arsenate) of -0.198.

APPL2 (UniProt Q8NEU8) showed a thermal stability z-score (lipoamide; [1]) of 0.0353, a thermal stability z-score (lipoamide; arsenate co-treatment: none) of -0.132 and a thermal stability z-score (potassium arsenate) of -0.0173.

Work on NCBP1 (UniProt Q09161) yielded a thermal stability z-score (lipoamide; [1]) of 0.353, a thermal stability z-score (lipoamide; arsenate co-treatment: none) of 0.393 and a thermal stability z-score (potassium arsenate) of -0.0646.

For NUP205 (UniProt Q92621), the thermal stability z-score (lipoamide; [1]) was -0.769, the thermal stability z-score (lipoamide; arsenate co-treatment: none) was -0.572 and the thermal stability z-score (potassium arsenate) was 1.05.

For ACTN4 (UniProt O43707), the thermal stability z-score (lipoamide; [1]) was 0.262, the thermal stability z-score (lipoamide; arsenate co-treatment: none) was 0.364 and the thermal stability z-score (potassium arsenate) was 0.498.

SLC39A6 (UniProt Q13433) was tested, and the thermal stability z-score (lipoamide; [1]) was -0.119, the thermal stability z-score (lipoamide; arsenate co-treatment: none) was 0.454 and the thermal stability z-score (potassium arsenate) was 0.868.

For COPS4 (UniProt Q9BT78), the thermal stability z-score (lipoamide; [1]) was 0.298, the thermal stability z-score (lipoamide; arsenate co-treatment: none) was -0.0548 and the thermal stability z-score (potassium arsenate) was -0.453.

In the case of ACOT8 (UniProt O14734), the thermal stability z-score (lipoamide; [1]) is reported as 0.492, the thermal stability z-score (lipoamide; arsenate co-treatment: none) is reported as 0.113 and the thermal stability z-score (potassium arsenate) is reported as 0.0313.

RCC1 (UniProt P18754) gave a thermal stability z-score (lipoamide; [1]) of -0.231, a thermal stability z-score (lipoamide; arsenate co-treatment: none) of -0.0308 and a thermal stability z-score (potassium arsenate) of -0.548.

RBBP9 (UniProt O75884) was tested, and the thermal stability z-score (lipoamide; [1]) was 0.308, the thermal stability z-score (lipoamide; arsenate co-treatment: none) was 0.162 and the thermal stability z-score (potassium arsenate) was 0.167.

Work on COX5A (UniProt P20674) yielded a thermal stability z-score (lipoamide; [1]) of 2.24, a thermal stability z-score (lipoamide; arsenate co-treatment: none) of 1.82 and a thermal stability z-score (potassium arsenate) of 1.36.

Source: the supplement of paper PMC12463676, “Small-molecule dissolution of stress granules by redox modulation benefits ALS models” (Nature Chemical Biology, 2025)
